According to US20230310388A1, “Methods and Compositions for Treating Fungal Infections” (Neoculi Pty Ltd, priority 2020, published 2023):
In brackets after ≈: the same amount, converted by molar mass. Several values for one entry are separate records, joined by “and”; a condition that tells them apart may be missing. Identical values can stand only once. Like-named read-outs stand apart in the source and are kept apart here.

Key:
Assay type in all cases: cell-based
Candida albicans [1] = test: CLSI broth microdilution MIC (Example 3)
Description: (§1) Antifungal minimum inhibitory concentration (MIC) testing was undertaken as recommended by the CLSI. Briefly, antifungal susceptibility tests were performed for amphotericin B, robenidine (NCL812) and 5 robenidine analogs (NCL062, NCL195, NCL219, NCL259, NCL265) by standard broth microdilution method (CLSI) in RPMI 1640. Various concentrations (ranging from high to low) of the selected compounds were prepared in RPMI 1640 medium by double dilution in 96-well microtitre plates. Each well contained an inoculum of approximately 2×10^3 cells/mL. The wells without addition of drugs served as negative (no inoculum) and positive (inoculum only) growth controls. Microtitre plates were incubated at 35° C. for 24-48 hours. […] Antifungal MICs were determined for each isolate in duplicate; if the values obtained were different, the MIC test was repeated a third time. Antifungal susceptibility tests were performed for amphotericin B and NCL analogs by standard broth microdilution method (CLSI). Briefly, various concentrations (ranging from high to low) of the selected compounds were prepared in RPMI 1640 medium by double dilution in the 96-well plates. Each well contained an inoculum of approximately 2×10^3 cells/mL. The wells without addition of drugs served as a negative control. Micro plates were incubated at 35° C. for 48 hour and read spectrophotometrically at 600 nm, using a microplate reader (Multiskan-EX; Thermo Elect. Corp., USA).

Candida parapsilosis = test: CLSI broth microdilution MIC (Example 3); settings: Candida parapsilosis ATCC 22019
Description: as §1

[2] = system: Candida albicans ATCC14053; test: Broth micro-dilution screen at 16 μg/mL and MIC (Example 9); settings: for MIC: C. albicans ATCC14053, test range 0.25-64 μg/mL, duplicate; for Screen at 16 μg/mL: single concentration 16 μg/mL, Growth or No growth of C. albicans ATCC14053
Description: The antifungal activity of 201 NCL analogs against Candida albicans ATCC14053 in vitro was investigated. A broth micro-dilution method was used, according to CLSI guidelines as described. NCL analogs were dissolved in DMSO and originally screened at a single concentration of 16 μg/mL.

Candida albicans [3] = test: Checkerboard MIC/FICI of NCL812 and EDTA (Example 2); settings: isolate Candida albicans
Malassezia pachydermatis = test: as above; settings: for MIC: Malassezia pachydermatis, read-out: MIC, compound alone; for MIC, combination: EDTA + NCL812 combination; for FICI: NCL812 with EDTA
Excerpt: There is no recommended CLSI standard for M. pachydermatis. In the literature there are a number of papers which have developed MIC methodology for Malassezia species isolated from both humans and animals (ie both lipophilic and non-lipophilic species). In all papers the methodology has been altered from the original CLSI protocols in order to overcome four main problem areas involved in testing this yeast. • 1) Finding a suitable growth medium for Malassezia, especially the lipophilic species. […] The method followed was originally developed by Eichenberg et al. (2003) (mSAB broth microdilution method). The mSAB method was devised to follow as closely as possible the CLSI guidelines whilst still allowing for the distinct biochemical and growth requirements of M. pachydermatis. […] Briefly, 150 μl of SDB+1% TW80 was added to each well of a 96-well microtiter plate, which was used as the checkerboard challenge plate. Next, a two-fold serial dilution of NCL 812 (robenidine) working solution was performed along the abscissa (column 3 to 12 only) (1/2 to 1/1024 dilution ratio). […] Experiments were performed in duplicate and repeated twice. […] The FICI values were interpreted as follows (Hamoud et al., 2015).

Cc1ccc(/C=N/Nc2cc(N/N=C/c3ccc(C)cc3)nc(N)n2)cc1 [NCL195]
MIC (Candida albicans [1]; Candida albicans ATCC 90028, 1st): 2 µg/mL (≈ 5.56 µM)
MIC (Candida albicans [1]; Candida albicans ATCC 90028, 2nd): 2 µg/mL (≈ 5.56 µM)
MIC (Candida albicans [1]; Candida albicans, 1st): 2 µg/mL (≈ 5.56 µM)
MIC (Candida albicans [1]; Candida albicans, 2nd): 2 µg/mL (≈ 5.56 µM)
MIC (Candida parapsilosis; 1st): 1 µg/mL (≈ 2.78 µM)
MIC (Candida parapsilosis; 2nd): 2 µg/mL (≈ 5.56 µM)
MIC [2]: 1 µg/mL and 2 µg/mL
Screen at 16 μg/mL [2]: No growth

N=C(N/N=C/c1ccc(Cl)cc1)N/N=C/c1ccc(Cl)cc1 [NCL812, robenidine, reference compound]
MIC, combination (Candida albicans [3]; EDTA + NCL812 combination): 1 µg/mL
FICI (Candida albicans [3]; NCL812 with EDTA): 0.75
MIC (Candida albicans [3]; read-out: MIC, compound alone): 4 µg/mL
MIC (Candida albicans [1]; Candida albicans, ATCC90028, Candida albicans ATCC 90028, 1st, read-out: MIC): 0.25 µg/mL (≈ 0.748 µM)
MIC (Candida albicans [1]; Candida albicans, ATCC90028, Candida albicans ATCC 90028, 2nd, read-out: MIC): 0.5 µg/mL (≈ 1.5 µM)
MIC (Candida albicans [1]; Candida albicans, two Candida albicans and one Candida parapsilosis isolates, summary range, read-out: MIC): 0.5 to 8 µg/mL (≈ 1.5 to 23.9 µM)
MIC (Candida albicans [1]; Candida albicans, 1st, read-out: MIC): 0.5 µg/mL (≈ 1.5 µM)
MIC (Candida albicans [1]; Candida albicans, 2nd, read-out: MIC): 1 µg/mL (≈ 2.99 µM)
MIC (Candida parapsilosis; 2nd): 0.5 µg/mL (≈ 1.5 µM)
MIC (Candida parapsilosis; Lodderomyces parapsilosis, ATCC22019, 1st, read-out: MIC): 0.5 µg/mL (≈ 1.5 µM)
activity against Candida albicans at the low discriminating concentration ([2]; 16 μg/mL screen, summary in words): high activity
MIC ([2]; Candida albicans, read-out: MIC): 0.5 µg/mL (≈ 1.5 µM)
Screen at 16 μg/mL [2]: No growth
MIC (Malassezia pachydermatis; isolate ML18): 1 µg/mL
MIC (Malassezia pachydermatis; isolate ML19): 2 µg/mL
MIC (Malassezia pachydermatis; isolate ML20): 1 µg/mL
MIC (Malassezia pachydermatis; isolate ML21): 2 µg/mL
MIC (Malassezia pachydermatis; isolate ML36): 2 µg/mL
MIC (Malassezia pachydermatis; isolate ML41): 2 µg/mL
MIC (Malassezia pachydermatis; isolate ML42): 2 µg/mL
MIC (Malassezia pachydermatis; isolate ML43): 4 µg/mL
MIC (Malassezia pachydermatis; isolate ML44): 1 µg/mL
MIC (Malassezia pachydermatis; isolate ML69): 2 µg/mL
interaction of NCL812 and EDTA (FICI interpretation) (Malassezia pachydermatis; each of the 11 isolates (10 Malassezia, 1 Candida albicans)): Synergy (FICI ≤ 0.5)
MIC, combination (Malassezia pachydermatis; isolate ML18): 0.5 µg/mL
FICI (Malassezia pachydermatis; isolate ML18): 1
MIC, combination (Malassezia pachydermatis; isolate ML19): 1 µg/mL
FICI (Malassezia pachydermatis; isolate ML19): 1
MIC, combination (Malassezia pachydermatis; isolate ML20): 0.5 µg/mL
FICI (Malassezia pachydermatis; isolate ML20): 1
MIC, combination (Malassezia pachydermatis; isolate ML21): 1 µg/mL
FICI (Malassezia pachydermatis; isolate ML21): 1
MIC, combination (Malassezia pachydermatis; isolate ML36): 1 µg/mL
FICI (Malassezia pachydermatis; isolate ML36): 1
MIC, combination (Malassezia pachydermatis; isolate ML41): 0.5 µg/mL
FICI (Malassezia pachydermatis; isolate ML41): 0.75
MIC, combination (Malassezia pachydermatis; isolate ML42): 1 µg/mL
FICI (Malassezia pachydermatis; isolate ML42): 1
MIC, combination (Malassezia pachydermatis; isolate ML43): 2 µg/mL
FICI (Malassezia pachydermatis; isolate ML43): 1
MIC, combination (Malassezia pachydermatis; isolate ML44): 0.5 µg/mL
FICI (Malassezia pachydermatis; isolate ML44): 1
MIC, combination (Malassezia pachydermatis; isolate ML69): 1 µg/mL
FICI (Malassezia pachydermatis; isolate ML69): 1
